Results as given in US5571524A, “Agent for curing ischemic myocardial disease” (Unitika Ltd., priority 1994, dated 1996).

Legend:
Format in all cases: in vivo
[1] = tested on: Mongrel dogs; test: Coronary blood flow increase effect, nonischemic condition; details: for Coronary blood flow: 8-SPT and/or L-NAME alone, before Ap4A, N = 1 - 2
Experimental: (§1) Mongrel dogs weighing 18-22 kg were anesthetized with pentobarbital sodium (30 mg/kg). The trachea was intubated, and the dog was ventilated with room air with oxygen. The chest was opened through the left fifth intercostal space, and the heart was suspended in a pericardial cradle. The left anterior descending coronary artery was cannulated and perfused with blood via the carotid artery through an extracorporeal bypass tube after heparinization (500 units/kg). Coronary blood flow (CBF) was measured with an electromagnetic flow probe attached to the bypass tube, and coronary perfusion pressure (CPP) was monitored at the tip of the coronary arterial cannula. A small, short collecting tube was cannulated into a small coronary vein near the center of the perfused area to sample coronary venous blood. The drained venous blood was collected in a reservoir placed at the level of the left atrium. A high fidelity of left ventricular pressure and its first derivative were measured by a micromanometer (model P-5, Konigsberg Instruments, Inc., Pasadena, Calif.) placed in the left ventricular cavity through the apex. A pair of ultrasonic crystals was placed in the center of the perfused area about 1 cm apart to measure myocardial segment length with an ultrasonic dimension gauge (5 MHz, Schuessler, Cardiff by the Sea, Calif.). End-diastolic length (EDL) was determined at the R wave of the electrocardiogram, and end-systolic length (ESL) was determined at the minimal dP/dt. Fractional shortening was calculated by (EDL-ESL)/EDL as an index of myocardial contractility of the perfused area.
After stabilization, a physiological saline solution […], with the dosage thereof increased to 0.5, 1, 2, 4 and 8 μg/kg/min, and the changes in coronary blood flow were measured in order to assess the coronary blood flow increase effect of Ap4A.
8-sulfophenyltheophylline (hereinafter referred to as 8-SPT) serving as adenosine P1 receptor antagonist with a dose of 25 μg/kg/min was tested.
The above test was also repeated by replacing 8-SPT with N^G -nitro-L-arginine methyl ester (hereinafter referred to as L-NAME) serving as an endothelial-cell-induced nitric oxide (NO) synthesis inhibitor with a dose of 3 μg/kg/min(ic).
The above test was then repeated using 8-SPT and L-NAME in combination.

[2] = tested on: Mongrel dogs; test: Lactate extraction ratio and pH of venous blood during ischemia; details: for pH of venous blood / Lactate extraction ratio: ischemia (1/3 blood flow); for pH of venous blood: control 7.46, 1/3 control 7.23; for Lactate extraction ratio: control 26.5, 1/3 control -67.9
Experimental: as §1
Namely, the lactate extraction ratio was obtained by coronary arteriovenous difference in lactate concentration multiplied by 100 and divided by arterial lactate concentration.
(§2) After stabilization, CPP was decreased with partial occlusion of the bypass tube to the left anterior descending coronary artery such that CBF decreased to one third of the control flow. The low CPP was maintained during this test.
(§3) Blood sampling from coronary veins and coronary arteries was conducted. Then the intracoronary administration of Ap4A was stopped. The lowered coronary perfusion pressure was further maintained for 10 minutes.
(§4) The above test was repeated by replacing Ap4A with adenosine with the dosage thereof being changed to 4, 8 and 16 μg/kg/min.
As mentioned previously, in the above-mentioned experimental systems, lactate extraction ratio and pH of venous blood were measured at the time of the intracoronary administration of Ap4A and also at the time of the intracoronary administration of adenosine.

[3] = tested on: Mongrel dogs; test: Amelioration of myocardial ischemia: coronary blood flow, fractional shortening and perfusion pressure during factitious 1/3 blood flow; details: for Myocardial fractional shortening / Coronary blood flow / Coronary perfusion pressure: ischemia (1/3 blood flow); for Myocardial fractional shortening: control 26.9, 1/3 control 5.3; for Coronary blood flow: control 91.3, 1/3 control 21.2; for Coronary perfusion pressure: control 93.0, 1/3 control 57.0
Experimental: as §1, §2, §3, §4

[4] = adenosine 4 μg/kg/min intracoronary
[5] = adenosine 8 μg/kg/min intracoronary
[6] = adenosine 16 μg/kg/min intracoronary

SMILES	inhibition of the effect of adenosine ([1]; 8-SPT 25 μg/kg/min)	Coronary blood flow [1]	amelioration of lactate extraction ratio and pH ([2]; ischemia)	pH of venous blood [2, 4]	Lactate extraction ratio [2, 4]	pH of venous blood [2, 5]	Lactate extraction ratio [2, 5]	pH of venous blood [2, 6]	Lactate extraction ratio [2, 6]	Myocardial fractional shortening ([3]; adenosine 4 μg/kg/min)	Coronary blood flow ([3]; adenosine 4 μg/kg/min)	Coronary perfusion pressure ([3]; adenosine 4 μg/kg/min)	Myocardial fractional shortening ([3]; adenosine 8 μg/kg/min)	Coronary blood flow ([3]; adenosine 8 μg/kg/min)	Coronary perfusion pressure ([3]; adenosine 8 μg/kg/min)	Myocardial fractional shortening ([3]; adenosine 16 μg/kg/min)	Coronary blood flow ([3]; adenosine 16 μg/kg/min)	Coronary perfusion pressure ([3]; adenosine 16 μg/kg/min)	changes in coronary blood flow and myocardial fractional shortening ([3]; ischemia, adenosine 4, 8 and 16 μg/kg/min)	amelioration effect on myocardial ischemia ([3]; mongrel dogs in a state of excessive ischemia)
Cn1c(=O)c2[nH]c(-c3ccc(S(=O)(=O)O)cc3)nc2n(C)c1=O [8-SPT, 8-sulfophenyltheophylline, reference compound]	completely inhibited	93.7 ml/100 g/min																		
Nc1ncnc2c1ncn2[C@@H]1O[C@H](CO)[C@@H](O)[C@H]1O [Adenosine, adenosine]			no such amelioration effects	7.19	-73.2%	7.25	-69.8%	7.22	-73.2%	5.9%	18.2 ml/100 g/min	56.0 mmHg	3.9%	18.2 ml/100 g/min	56.0 mmHg	5.3%	18.2 ml/100 g/min	56.0 mmHg	no substantial changes in coronary blood flow and myocardial fractional shortening	unaffected
COC(=O)[C@@H](N)CCCNC(=N)N[N+](=O)[O-] [L-NAME, N^G -nitro-L-arginine methyl ester, reference compound]		90.3 ml/100 g/min																		
